This note sets out measurements from ChEMBL document CHEMBL1275374, “Ligand-based virtual screening and ADME-tox guided approach to identify triazolo-quinoxalines as folate cycle inhibitors” (Bioorg Med Chem, 2010).

Activity calls are given as the source filed them. The calls are words filed in the database; no cut-off is given here. A value given as a limit tells only on which side of the number the result lay.

Data set [1] deals with T1, Thymidylate synthase (Homo sapiens, UniProt P04818). As to the kind of experiment: Inhibition of human thymidylate synthase expressed in Escherichia coli BL21 at 100 uM.
Target sequence in this assay (P04818 2-313 limits assumed): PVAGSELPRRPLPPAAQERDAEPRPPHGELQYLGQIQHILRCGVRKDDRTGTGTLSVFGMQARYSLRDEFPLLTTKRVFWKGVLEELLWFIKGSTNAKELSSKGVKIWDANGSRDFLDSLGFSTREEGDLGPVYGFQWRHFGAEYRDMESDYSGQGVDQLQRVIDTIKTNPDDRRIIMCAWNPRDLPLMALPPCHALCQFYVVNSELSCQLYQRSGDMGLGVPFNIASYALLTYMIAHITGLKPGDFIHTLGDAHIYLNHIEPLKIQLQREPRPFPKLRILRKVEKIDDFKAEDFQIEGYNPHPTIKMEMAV
Data set [2] deals with T2, Dihydrofolate reductase (Homo sapiens) (UniProt P00374).
T2 sequence (whole entry): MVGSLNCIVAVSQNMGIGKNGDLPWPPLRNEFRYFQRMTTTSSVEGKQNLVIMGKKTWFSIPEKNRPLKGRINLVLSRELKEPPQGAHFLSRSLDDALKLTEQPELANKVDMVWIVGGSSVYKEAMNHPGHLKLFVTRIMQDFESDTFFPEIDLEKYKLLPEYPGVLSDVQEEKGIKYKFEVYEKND
As to the kind of experiment: Inhibition of human DHFR expressed in Escherichia coli BL21 at 100 uM.

Data set [3] deals with T1, Thymidylate synthase. As to the kind of experiment: Inhibition of human thymidylate synthase expressed in Escherichia coli BL21 at 50 uM.
Target sequence in this assay (P04818 2-313 limits assumed): as the sequence (P04818 2-313 limits assumed) above
For a further data set, the system named is Vero. As to the kind of experiment: Cytotoxicity against african green monkey Vero cells after 72 hrs using crystal violet staining by spectrophotometric analysis. The settings on record: Chlorocebus sabaeus. The data set is classed as cell-based.
Data set [4] can be described thus: Cytotoxicity against human cDDP-resistant C13 cells after 72 hrs using crystal violet staining by spectrophotometric analysis. The settings on record: C13, 72 h. The data set is classed as cell-based.
Data set [5] relates to 2008. As to the kind of experiment: Cytotoxicity against human cDDP-sensitive 2008 cells after 72 hrs using crystal violet staining by spectrophotometric analysis. The format is cell-based. The following applies: Homo sapiens, 2008, 72 h.
Data set [6] has as its system A2780. As to the kind of experiment: Cytotoxicity against human cDDP-resistant A2780 cells after 72 hrs using crystal violet staining by spectrophotometric analysis. The format is cell-based. The settings on record: A2780, 72 h.
The test system of data set [7] is A2780. As to the kind of experiment: Cytotoxicity against human cDDP-sensitive A2780 cells after 72 hrs using crystal violet staining by spectrophotometric analysis. The format is cell-based. The settings on record: A2780, 72 h.
The test system of data set [8] is 2008. As to the kind of experiment: Inhibition of DHFR protein expression in human cDDP-sensitive 2008 cells after 72 hrs by Western blotting. The format is functional, cell-based.
The next data set has as its system C13. As to the kind of experiment: Inhibition of DHFR protein expression in human cDDP-resistant C13 cells after 72 hrs by Western blotting. The data set is classed as functional, cell-based. Background: In western blotting, separated proteins are transferred to a membrane and probed.
For data set [9], the system named is 2008. As to the kind of experiment: Inhibition of thymidylate synthase protein expression in human cDDP-sensitive 2008 cells after 72 hrs by Western blotting. The data set is classed as functional, cell-based.
Data set [10] can be described thus: Inhibition of thymidylate synthase protein expression in human cDDP-resistant C13 cells after 72 hrs by Western blotting. The data set is classed as functional, cell-based.
The target of data set [11] is T1, Thymidylate synthase. As to the kind of experiment: Inhibition of thymidylate synthase catalytic activity in human cDDP-sensitive 2008 cells after 72 hrs by Western blotting (reference value: 38.8 +/- 3.9%). The format is cell-based. The settings on record: concentration not given here.
Target sequence in this assay (P04818 2-313 limits assumed): as the sequence (P04818 2-313 limits assumed) above
For data set [12], the target named is T1, Thymidylate synthase. As to the kind of experiment: Inhibition of thymidylate synthase catalytic activity in human cDDP-resistant C13 cells after 72 hrs by Western blotting (reference value: 12.9 +/- 0.6%). The data set is classed as cell-based. The settings on record: concentration not given here.
Target sequence in this assay (P04818 2-313 limits assumed): as the sequence (P04818 2-313 limits assumed) above
Data set [13] concerns 2008. As to the kind of experiment: Induction of ROS accumulation in human cDDP-sensitive 2008 cells at IC50 concentration after 72 hrs […]. The data set is classed as cell-based. The settings on record: human, 2008, 72 h.
The nature of data set [14]: Induction of ROS accumulation in human cDDP-resistant C13 cells at IC50 concentration after 72 hrs […]. The following applies: c13, 72 h. The format is cell-based.
A short description of data set [15]: Solubility of the compound in dimethyl sulfoxide. The data set is classed as physicochemical.
Data set [16] has as its target T1, Thymidylate synthase. As to the kind of experiment: Inhibition of human thymidylate synthase expressed in Escherichia coli BL21.
Target sequence in this assay (P04818 whole entry): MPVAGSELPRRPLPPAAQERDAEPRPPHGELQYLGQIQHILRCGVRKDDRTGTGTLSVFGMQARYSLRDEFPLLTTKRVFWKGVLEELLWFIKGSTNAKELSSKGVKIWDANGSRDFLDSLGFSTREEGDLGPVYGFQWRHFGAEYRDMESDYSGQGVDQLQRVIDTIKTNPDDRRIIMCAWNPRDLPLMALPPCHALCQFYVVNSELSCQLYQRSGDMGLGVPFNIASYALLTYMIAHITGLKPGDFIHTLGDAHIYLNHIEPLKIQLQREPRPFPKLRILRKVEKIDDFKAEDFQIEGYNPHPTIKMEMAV
The nature of data set [17]: Cytotoxicity against human Fibroblast at up to 100 uM after 72 hrs using crystal violet staining by spectrophotometric analysis. The data set is classed as cell-based.
The target in data set [18] is T1, Thymidylate synthase. As to the kind of experiment: Inhibition of human thymidylate synthase expressed in Escherichia coli BL21 at 25 uM.
Target sequence in this assay (P04818 2-313 limits assumed): as the sequence (P04818 2-313 limits assumed) above

`FC(F)(F)c1ccc(-c2nnc3c(C(F)(F)F)nc4ccccc4n23)cc1`: the inhibition amounted to 22% at Thymidylate synthase [1] and 10% in [2].

For `Cc1ccc(S(=O)(=O)N(C)c2nc3ccccc3n3c(-c4ccccc4)nnc23)cc1`, at Thymidylate synthase [3], the inhibition came out at 70%. Also, the inhibition entry in data set [2] was “inactive”.

As to `Cc1cc(Nc2nc3ccccc3n3cnnc23)ccc1Br`, the figures for the IC50 (with Vero; in [4]; in the data set on 2008 [5]) were 20 µM, 19 µM and 17 µM, respectively. This molecule returned an inhibition on Thymidylate synthase [3] of less than 5%.

On to `FC(F)(F)c1nc2ccccc2n2c(-c3ccc(Cl)cc3)nnc12`, for which the IC50 turned out to be 4.7 µM with A2780 [6]; 1.2 µM in the data set on Vero; 3.4 µM in data set [4]; 2.5 µM in the data set with 2008 [5]; 2.3 µM in the data set on A2780 [7]. This molecule yielded an inhibition at Thymidylate synthase [3] of less than 5%.

For `COc1ccc(C(=O)c2nc3ccccc3nc2N2CCN(C)CC2)cc1`, the IC50 was 27.4 µM with A2780 [6]; 42.4 µM with Vero; 8.3 µM in data set [4]; 18.8 µM in the data set with 2008 [5]; 17.4 µM in the data set on A2780 [7].

Consider `Cc1ccc(-c2nnc3c(C(F)(F)F)nc4ccccc4n23)cc1`, for which the IC50 was 35.7 µM with A2780 [6]; more than 50 µM in the data set with Vero; 26.7 µM in data set [4]; 42.5 µM with 2008 [5]; 33 µM with A2780 [7]. Further, the inhibition result (with 2008 [8]; with C13; in the data set on 2008 [9]; in data set [10]) was “inactive” in each case. For the same molecule, the inhibition against Thymidylate synthase [11] stood at 38.8%; against Thymidylate synthase [12], 12.9%. In addition, the Activity entry (in the data set on 2008 [13]; in data set [14]) was “Non-toxic” in each case.

Consider `N#Cc1c(N)n(CCc2ccccc2F)c2nc3ccccc3nc12`, for which the figures for the IC50 (in the data set with Vero; in [4]; with 2008 [5]) were 9.1 µM, 22 µM and 18 µM, respectively. Besides, the inhibition against Thymidylate synthase [3] is less than 5%.

Turning to `C=CCn1cnc2c(c1=O)c1nc3ccccc3nc1n2CCCC`, the solubility entry in [15] is given as “Insoluble”. The molecule further returned an inhibition on Thymidylate synthase [3] of less than 5%.

Take `Clc1nc2ccccc2n2c(-c3ccccc3)nnc12`: the IC50 with A2780 [6] turned out to be 6 µM; with Vero it was 18.2 µM; in [4], 13 µM; in the data set with 2008 [5] it was 12.5 µM; in the data set with A2780 [7], 2.5 µM. On Thymidylate synthase [16], this molecule showed a Ki of 10 µM. The inhibition at Thymidylate synthase [3] came to 28%. Further, the Activity result in [17] is listed as “Non-toxic”.

In the case of `Cc1cccc(-c2c3c(=O)n(C)c(=O)n(C)c3c3c(C(F)(F)F)nc4ccccc4n23)c1`, the IC50 in the data set on Vero worked out at 100 µM; in data set [4], 55 µM; with 2008 [5], 49 µM. In addition, the inhibition at Thymidylate synthase [3] was less than 5%.

As for `COCCn1c(C)nc2c(c1=O)c1nc3ccccc3nc1n2-c1cc(C)cc(C)c1`, in data set [15], the solubility result is listed as “Insoluble”. The same molecule gave an inhibition at Thymidylate synthase [3] of less than 5%.

In turn, `Cc1ccc(-c2nnc3c(N(C)C)nc4ccccc4n23)cc1` displayed an inhibition on Thymidylate synthase [1] of 41%. Further, the inhibition result in data set [2] was “inactive”.

With `O=C(Nc1cccc(Br)c1)c1ccc2nccnc2c1`, the IC50 (in data set [4]; in the data set with 2008 [5]) was 50 µM each time. Besides, on Thymidylate synthase [3], the inhibition was less than 5%.

On to `Cc1ccc(S(=O)(=O)N2CN(c3ccccc3)c3nc4ccccc4nc32)cc1`, for which the IC50 (in data set [4]; with 2008 [5]) was 50 µM each time. At Thymidylate synthase [3], the inhibition was less than 5%.

For `COc1ccc(-c2nc3ccccc3n3cc4c(=O)n(C)c(=O)n(C)c4c23)cc1`, the solubility result in [15] is “Insoluble”. Moreover, the inhibition at Thymidylate synthase [3] was less than 5%.

`O=C(CSc1nc2ccccc2nc1-c1ccccc1)N1CCCCCC1`: the inhibition against Thymidylate synthase [3] was less than 5%.

With `COCCn1cnc2c(c1=O)c1nc3ccccc3nc1n2-c1ccc(Cl)c(Cl)c1`, in data set [15], the solubility entry is “Insoluble”. Moreover, the figures for the IC50 (in the data set with Vero; in data set [4]; in the data set on 2008 [5]) were 52 µM, 36 µM and 31 µM, respectively. The inhibition on Thymidylate synthase [3] was less than 5%.

On to `COc1cc(Nc2nc3cc(C(F)(F)F)ccc3nc2C)cc(OC)c1OC`, for which the IC50 in the data set with A2780 [6] is 35.3 µM; in the data set on Vero, 40.2 µM; in data set [4] it was 14.2 µM; in the data set with 2008 [5], 28.8 µM; in the data set on A2780 [7], 27.5 µM.

For the molecule `O=C(Nc1cc(C(F)(F)F)ccc1Cl)c1ccc2nccnc2c1`, the IC50 (in data set [4]; in the data set with 2008 [5]) was 50 µM each time. The inhibition at Thymidylate synthase [3] was less than 5%.

As to `CN1CCN(c2nc3ccccc3n3c(-c4ccccc4)nnc23)CC1`, the IC50 with A2780 [6] was 38 µM; in the data set on Vero it was 22 µM; in data set [4], more than 50 µM; in the data set on 2008 [5] it was 48 µM; in the data set with A2780 [7] it was 18 µM. For the same molecule, the results for the inhibition (on Thymidylate synthase [1]; in data set [2]) were less than 10% and 40%, respectively.

On Thymidylate synthase [18], `Clc1ccc(Oc2nc3ccccc3n3c(-c4ccc(Cl)cc4)nnc23)cc1` showed an inhibition of 53%. Besides, the inhibition entry in data set [2] was “inactive”.

As to `Fc1ccccc1-c1nnc2c(C(F)(F)F)nc3ccccc3n12`, the IC50 in the data set on A2780 [6] stood at 11 µM; in the data set on Vero, 14 µM; in [4], 27 µM; in the data set on 2008 [5], 17.5 µM; with A2780 [7] it was 9 µM. The inhibition against Thymidylate synthase [1] was 17%; in data set [2], 10%.

On to `Cc1ccc(-c2nc3ccccc3n3cc4c(=O)n(C)c(=O)n(C)c4c23)cc1`, for which the solubility entry in data set [15] was “Insoluble”. Moreover, the IC50 in the data set on Vero was determined as 100 µM; in [4], 56 µM; in the data set with 2008 [5] it was 53 µM. At Thymidylate synthase [3], this molecule showed an inhibition of less than 5%.

Turning to `FC(F)(F)c1nc2ccccc2n2c(-c3c(Cl)cccc3Cl)nnc12`, the IC50 came out at 25 µM with A2780 [6]; 10 µM in the data set with Vero; 28 µM in data set [4]; 37 µM in the data set on 2008 [5]; 27.5 µM in the data set with A2780 [7]. Also, the inhibition entry (in the data set on 2008 [8]; with C13; with 2008 [9]; in data set [10]) was “inactive” each time. Further, the inhibition amounted to 58.9% against Thymidylate synthase [11] and 32.3% on Thymidylate synthase [12]. Besides, the Activity result (in the data set on 2008 [13]; in data set [14]) was “Non-toxic” in each case.

The molecule `O=C(c1ccco1)N1N=C(c2ccc3nccnc3c2)CC1c1ccccc1` (configuration not stated) showed an inhibition at Thymidylate synthase [3] of less than 5%. For the same molecule, the inhibition result on Thymidylate synthase [1] is “inactive”.

As usually defined, the inhibition is the change of the read-out against control, counted positive when it falls. As usually defined, the IC50 is the concentration that gives 50% inhibition. By Ki is commonly meant the equilibrium dissociation constant of an inhibitor or competing ligand from its target.
